This is an account of results in patent US12570639B2, “Tetrahydroquinoline derivative and medicinal use thereof” (Toray Industries, Inc., priority 2020, dated 2026).

SMILES strings stand for the structures. Structures can show the parent of a compound that is named as a salt.

Experiment [1] relates to Human fibrosarcoma cells (HT-1080 cells). Nature of the experiment: In vitro inhibitory action against ferroptosis (Erastin-induced cell death, Cell Counting Kit-8). It counts as cell-based. The settings on record: Erastin 3 μmol/L, 24 hours. Background: Tetrazolium assays rely on reduction of a dye to a coloured formazan, in cell work by metabolically active cells.
Experiment [2] concerns MOG-induced experimental autoimmune encephalomyelitis mouse model. Put plainly: Activity assessment 2 in MOG-induced experimental autoimmune encephalomyelitis mouse model. It counts as in vivo, C57BL/6J mice. The settings on record: 30 mg/kg orally twice daily for 15 days starting 50 days after MOG35-55 inoculation; vs vehicle-dosing group (1.93). As for the experimental part: (§1) A PBS solution prepared to contain a synthetic partial peptide of MOG (MOG35-55; CSBio) at a concentration of 4 mg/mL was mixed with an equal volume of Freund's complete adjuvant, and a total of 0.1 mL (0.05 mL per flank) of the resulting MOG35-55 dosing solution was inoculated intradermally into the bilateral flanks of C57BL/6J mice (male, 10 weeks old, Charles River Laboratories Japan, Inc.). On the day of inoculation of the MOG35-55 dosing solution and on the second day after the inoculation, 200 μL of pertussis toxin (Sigma Co. LLC) prepared at a concentration of 1 μg/mL was further administered intraperitoneally to the mice.
(§2) The compound of Example 11, the compound of Example 32, and the compound of Example 36 were used as test compounds to assess the effect of the test compounds on increase of neurological score in the MOG-induced experimental autoimmune encephalomyelitis mouse model. The study was performed in the same manner as in Example 175, except that the start day for administrating a test compound, the scoring method, and the timing of determining the neurological score were changed from those in Example 175. Each test compound was administered orally at a dose of 30 mg/kg twice daily for a period of 15 days starting 50 days after the inoculation of the MOG35-55 dosing solution. In addition, the score was determined by the following criteria: 0, normal; 0.5, partial drooping tail; 1, full drooping tail or hind-limb weakness; 2, full drooping tail and hind-limb weakness; 3, hind-limb partial paralysis; 4, hind-limb complete paralysis; 5, fore- and hind-limb complete paralysis.
The vertical axis represents neurological score (mean±standard error, n=7 or 8). On the horizontal axis, “Vehicle” represents the vehicle-dosing group, and “Compound of Example 11” represents the compound of Example 11—dosing group, and “Compound of Example 32” represents the compound of Example 32—dosing group, and “Compound of Example 36” represents the compound of Example 36—dosing group.

Experiment [3] can be described thus: In vitro radical scavenging action (DPPH method). The conditions noted are these: 30 minutes at room temperature, maximum concentration 100 μmol/L. The procedure: Radical scavenging action was evaluated using the DPPH method in the compound of Comparative Example 1, which is a tetrahydroquinoxaline derivative, and in the tetrahydroquinoline derivative (I) or a pharmaceutically acceptable salt thereof. The DPPH method was performed using an antioxidant capacity measurement kit (Dojindo Laboratories).
A test compound was dissolved in DMSO, and the resulting solution was then mixed with an assay buffer and a DPPH solution, which are included in the kit, to a total volume of 200 μL to obtain a final concentration of 10% DMSO, and the reaction was allowed to proceed. Wells added with 100 μmol/L ferrostatin-1, a radical scavenger, were grouped as “control,” and wells added with not test compound were grouped as “background.” The test compound was serially diluted 3-fold starting from a maximum concentration of 100 μmol/L, and the diluted test compound (1.2, 3.7, 11.1, 33.3, or 100 μmol/L) was added and allowed to react at room temperature. Thirty minutes after the reaction, the absorbance at 517 nm was measured, and the average absorbance value was calculated (N=2). The radical scavenging action of the test compound (hereinafter referred to as radical scavenging rate, %) was calculated based on the equation 2 below. The EC50 value of the test compound was calculated from the radical scavenging rate. Radical scavenging rate (%)=[1−{(Average absorbance value at 517 nm measured when a test compound is added)−(Average absorbance value at 517 nm measured in the background)}/{(Average absorbance value at 517 nm measured in the control)−(Average absorbance value at 517 nm measured in the background)}]×100 Equation 2
A note “no detection of radical scavenging action (N.D.),” is given to compounds with a EC50 of >100 μmol/L.
For orientation: Loss of DPPH colour is used to gauge radical scavenging.

In experiment [4] the test system is MOG-induced experimental autoimmune encephalomyelitis mouse model. Nature of the experiment: Activity assessment 3 in MOG-induced experimental autoimmune encephalomyelitis mouse model. Format: in vivo, C57BL/6J mice. The conditions noted are these: 10 mg/kg orally twice daily for 10 days starting 53 days after MOG35-55 inoculation; vs vehicle-dosing group (2.25). The procedure:
as §1, §2
The compound of Example 144, the compound of Example 171, and the compound of Example 172 were used as test compounds to assess the effect of the test compounds on increase of neurological score in the MOG-induced experimental autoimmune encephalomyelitis mouse model. […]

Setting [5] is: evaluation concentration 30 μmol/L.
Where [6] appears, read: evaluation concentration 10 μmol/L.

`c1ccc2c(c1)CCC(c1cn[nH]c1)N2` (centres unmarked) [Example 11, 2-(1H-pyrazol-4-yl)-1,2,3,4-tetrahydroquinoline]: in experiment [1] (evaluation concentration 50 μmol/L), the “Ferroptosis inhibition rate (%)” value was 106.0%. Further, the “neurological score reduction rate” value in experiment [2] worked out at 54.4%.

As usually defined, the EC50 is the concentration at which the effect is half-maximal. Higher therefore signals weaker potency. With `NS(=O)(=O)c1ccc(C2CCc3ccccc3N2)cc1` (centres unmarked) [Example 32, 4-(1,2,3,4-tetrahydroquinolin-2-yl)benzenesulfonamide], in experiment [1] (setting [5]), the “Ferroptosis inhibition rate (%)” value is listed as 100.5%. For the same compound, the EC50 in experiment [3] is more than 100 µM. Also, the “neurological score reduction rate” value in experiment [2] turned out to be 55.4%.

Take `NC(=O)c1ccc(C2CCc3ccccc3N2)cc1` (centres unmarked) [Example 36, 4-(1,2,3,4-tetrahydroquinolin-2-yl)benzamide]: the “Ferroptosis inhibition rate (%)” value in experiment [1] (setting [5]) is reported as 98.76%. The same compound yielded an EC50 in experiment [3] of more than 100 µM. Moreover, in experiment [2], the “neurological score reduction rate” value stood at 45.1%.

For `O=C(Cc1ccc2c(c1)CCC(c1ccccc1)N2)N1CC(O)C1` (centres unmarked) [Example 144, 1-(3-hydroxyazetidin-1-yl)-2-(2-phenyl-1,2,3,4-tetrahydroquinolin-6-yl)ethan-1-one hydrochloride], the “Ferroptosis inhibition rate (%)” value in experiment [1] (evaluation concentration 30 μmol/L, hydrochloride) is reported as 96.14%. For the same compound, the EC50 in experiment [3] is more than 100 µM. For the same compound, in experiment [4], the “neurological score reduction rate” value is 25.0%.

For the compound `O=C(Cc1ccc2c(c1)CCC(c1ccccc1)N2)NC1COC1` (centres unmarked) [Example 148, N-(oxetan-3-yl)-2-(2-phenyl-1,2,3,4-tetrahydroquinolin-6-yl)acetamide], the “Ferroptosis inhibition rate (%)” value in experiment [1] (setting [5]) amounted to 86.55%. Besides, the EC50 in experiment [3] was more than 100 µM.

`O=C(Cc1ccc2c(c1)CCC(c1ccccc1)N2)N1CC(F)(F)C1` (centres unmarked) [Example 149, 1-(3,3-difluoroazetidin-1-yl)-2-(2-phenyl-1,2,3,4-tetrahydroquinolin-6-yl)ethan-1-one]: in experiment [1] (setting [5]), the “Ferroptosis inhibition rate (%)” value was 99.36%. In experiment [3], this compound had an EC50 of more than 100 µM.

Take `CN(CCO)C(=O)Cc1ccc2c(c1)CCC(c1ccccc1)N2` (centres unmarked) [Example 150, N-(2-hydroxyethyl)-N-methyl-2-(2-phenyl-1,2,3,4-tetrahydroquino-lin-6-yl)acetamide]: in experiment [1] (setting [5]), the “Ferroptosis inhibition rate (%)” value is 106.9%. Besides, the EC50 in experiment [3] was more than 100 µM.

Take `O=C(Cc1ccc2c(c1)CCC(c1ccccc1)N2)N1CCC1` (centres unmarked) [Example 151, 1-(azetidin-1-yl)-2-(2-phenyl-1,2,3,4-tetrahydroquinolin-6-yl)ethan-1-one]: the “Ferroptosis inhibition rate (%)” value in experiment [1] (setting [5]) is 108.2%. This compound registered an EC50 in experiment [3] of more than 100 µM.

Consider `O=C(Cc1ccc2c(c1)CCC(c1ccccc1)N2)NC1CC1` (centres unmarked) [Example 152, N-cyclopropyl-2-(2-phenyl-1,2,3,4-tetrahydroquinolin-6-yl)acetamide], for which the “Ferroptosis inhibition rate (%)” value in experiment [1] (setting [5]) is on record as 108.1%. Moreover, the EC50 in experiment [3] is more than 100 µM.

Regarding `O=C(Cc1ccc2c(c1)CCC(c1ccccc1)N2)NC1CCC1` (centres unmarked) [Example 155, N-cyclobutyl-2-(2-phenyl-1,2,3,4-tetrahydroquinolin-6-yl)acetamide], the “Ferroptosis inhibition rate (%)” value in experiment [1] (setting [5]) was found to be 106.1%. Besides, in experiment [3], the EC50 is more than 100 µM.

With `O=C1CN(C(=O)Cc2ccc3c(c2)CCC(c2ccccc2)N3)CCN1` (centres unmarked) [Example 157], the “Ferroptosis inhibition rate (%)” value in experiment [1] (setting [5]) was determined as 69.89%. The EC50 in experiment [3] was more than 100 µM.

Turning to `O=C(Cc1ccc2c(c1)CCC(c1ccccc1)N2)N1CCNCC1` (centres unmarked) [Example 158, 2-(2-phenyl-1,2,3,4-tetrahydroquinolin-6-yl)-1-(piperazin-1-yl)ethan-1-one], the “Ferroptosis inhibition rate (%)” value in experiment [1] (setting [5]) is 55.98%. Further, in experiment [3], the EC50 was more than 100 µM.

Turning to `O=C(Cc1ccc2c(c1)CCC(c1ccccc1)N2)N1CC(F)(F)C1` (centres unmarked) [Example 160, 1-(3,3-difluoroazetidin-1-yl)-2-(2-phenyl-1,2,3,4-tetrahydroquinolin-6-yl)ethan-1-one], in experiment [1] (setting [6]), the “Ferroptosis inhibition rate (%)” value worked out at 99.11%. The EC50 in experiment [3] was more than 100 µM.

With `O=C(Cc1ccc2c(c1)CCC(c1ccccc1)N2)N1CC(F)(F)C1` (centres unmarked) [Example 161, 1-(3,3-difluoroazetidin-1-yl)-2-(2-phenyl-1,2,3,4-tetrahydroquinolin-6-yl)ethan-1-one], the “Ferroptosis inhibition rate (%)” value in experiment [1] (setting [6]) was 94.01%. The compound further came in with an EC50 in experiment [3] of more than 100 µM.

As to `NS(=O)(=O)c1ccc(C2CNc3ccccc3C2)cc1` (centres unmarked) [Example 171, 4-(1,2,3,4-tetrahydroquinolin-3-yl)benzenesulfonamide], the “Ferroptosis inhibition rate (%)” value in experiment [1] (setting [5]) is listed as 90.71%. Further, the “neurological score reduction rate” value in experiment [4] stood at 47.2%.

Take `NS(=O)(=O)c1ccc(C2CNc3ccccc3C2)cc1` (centres unmarked) [Example 172, 4-(1,2,3,4-tetrahydroquinolin-3-yl)benzenesulfonamide]: the “Ferroptosis inhibition rate (%)” value in experiment [1] (setting [5]) is on record as 92.87%. Further, the “neurological score reduction rate” value in experiment [4] turned out to be 27.8%.
